# pEC50: −log10 of the molar value. Read-outs that look alike come from different tables or passages of the source.
# Assays:
# Assay in all cases: Cell viability, panel of AML cell lines
# Format in all cases: cell-based
# KGI = conditions: Homo sapiens, KGI cells
# Experimental: (§1) Representative human AML cell lines (FIG. 2A; upper and lower panels) HL60/VCR and (FIG. 2B; upper and lower panels) OCI-AML2 were treated with SACLAC for 24 and 48 hours. Viability was assessed by MTS assay at 24 and 48 hours and apoptosis was assessed by flow cytometry at 48 hours. Upper panels represent % viability and lower panels indicate % apoptosis.
# (§2) Two representative human-derived AML cell lines, HL60/VCR and OCI-AML2, are shown. These studies have been expanded to a large panel of additional human AML cell lines (n=30, Table 1).
# EOL-1 = conditions: Homo sapiens, EOL1, EOL-1 cells
# Experimental: as §1, §2
# OCI-AML4 = conditions: Homo sapiens, OCI-AML4 cells
# Experimental: as §1, §2
# Kasumi-6 = conditions: Homo sapiens, Kasumi-6 cells
# Experimental: as §1, §2
# OCI-AML2 = conditions: Homo sapiens, OCI-AML2 cells
# Experimental: as §1, §2
# OCI-AML3 = conditions: Homo sapiens, OCI-AML-3, OCI-AML3 cells
# Experimental: as §1, §2
# SKM1 = conditions: Homo sapiens, SKM-1, SKM1 cells
# Experimental: as §1, §2
# SET2 = conditions: Homo sapiens, SET-2, SET2 cells
# Experimental: as §1, §2
# SKNO1 = conditions: Homo sapiens, SKNO-1, SKNO1 cells
# Experimental: as §1, §2
# HL60/VCR = conditions: Homo sapiens, HL60/VCR cells (drug resistant variant)
# Experimental: as §1, §2
# U937 = conditions: Homo sapiens, U-937, U937 cells
# Experimental: as §1, §2
# KG1a = conditions: Homo sapiens, KG-1a, KG1a cells
# Experimental: as §1, §2
# HL60/ABTR = conditions: Homo sapiens, HL-60, HL60/ABTR cells (drug resistant variant)
# Experimental: as §1, §2
# NOMO1 = conditions: Homo sapiens, NOMO-1, NOMO1 cells
# Experimental: as §1, §2
# ME-1 = conditions: Homo sapiens, ME-1 cells
# Experimental: as §1, §2
# KGIa/ABTR = conditions: Homo sapiens, KGIa/ABTR cells
# Experimental: as §1, §2
# MV4-11 = conditions: Homo sapiens, MV4-11 cells
# Experimental: as §1, §2
# MOLM-14 = conditions: Homo sapiens, MOLM-14 cells
# Experimental: as §1, §2
# ML2 = conditions: Homo sapiens, ML-2, ML2 cells
# Experimental: as §1, §2
# Kasumi-3 = conditions: Homo sapiens, Kasumi-3 cells
# Experimental: as §1, §2
# MOLM-13 = conditions: Homo sapiens, MOLM-13 cells
# Experimental: as §1, §2
# KGI/ABTR = conditions: Homo sapiens, KGI/ABTR cells
# Experimental: as §1, §2
# HEL = conditions: Homo sapiens, HEL cells
# Experimental: as §1, §2
# THP-1 = conditions: Homo sapiens, THP-1 cells
# Experimental: as §1, §2
# HL60 = conditions: Homo sapiens, HL-60, HL60 cells
# Experimental: as §1, §2
# NB4 = conditions: Homo sapiens, NB-4, NB4 cells
# Experimental: as §1, §2
# MM-6 = conditions: Homo sapiens, MM-6 cells
# Experimental: as §1, §2
smiles,measurement,setting,value
"CCCCCCCCCCCCCCC[C@@H](O)[C@H](CO)NC(=O)CCl [SACLAC, 2-chloro-N-((2S,3R)-1,3-dihydroxyoctadecan-2-yl)acetamide]",pEC50,"KGI; 24 h, read-out: EC50 24 h",5.49
same,pEC50,"KGI; 48 h, read-out: EC50 48 h",5.57
same,pEC50,"EOL-1; 24 h, read-out: EC50 24 h",6.00
same,pEC50,"EOL-1; 48 h, read-out: EC50 48 h",5.96
same,pEC50,"OCI-AML4; 24 h, read-out: EC50 24 h",5.85
same,pEC50,"OCI-AML4; 48 h, read-out: EC50 48 h",6.15
same,pEC50,"Kasumi-6; 24 h, read-out: EC50 24 h",5.68
same,pEC50,"Kasumi-6; 48 h, read-out: EC50 48 h",5.57
same,pEC50,"OCI-AML2; 24 h, read-out: EC50 24 h",5.74
same,pEC50,"OCI-AML2; 48 h, read-out: EC50 48 h",5.96
same,pEC50,"OCI-AML3; 24 h, read-out: EC50 24 h",6.22
same,pEC50,"OCI-AML3; 48 h, read-out: EC50 48 h",6.40
same,pEC50,"SKM1; 24 h, read-out: EC50 24 h",5.80
same,pEC50,"SKM1; 48 h, read-out: EC50 48 h",6.15
same,pEC50,"SET2; 24 h, read-out: EC50 24 h",5.59
same,pEC50,"SET2; 48 h, read-out: EC50 48 h",5.48
same,pEC50,"SKNO1; 24 h, read-out: EC50 24 h",6.05
same,pEC50,"SKNO1; 48 h, read-out: EC50 48 h",6.10
same,pEC50,"HL60/VCR; 24 h, read-out: EC50 24 h",5.48
same,pEC50,"HL60/VCR; 48 h, read-out: EC50 48 h",5.62
same,pEC50,"U937; 24 h, read-out: EC50 24 h",6.00
same,pEC50,"U937; 48 h, read-out: EC50 48 h",5.77
same,pEC50,"KG1a; 24 h, read-out: EC50 24 h",5.25
same,pEC50,"KG1a; 48 h, read-out: EC50 48 h",5.46
same,pEC50,"HL60/ABTR; 24 h, read-out: EC50 24 h",5.60
same,pEC50,"HL60/ABTR; 48 h, read-out: EC50 48 h",5.52
same,pEC50,"NOMO1; 24 h, read-out: EC50 24 h",5.96
same,pEC50,"NOMO1; 48 h, read-out: EC50 48 h",6.10
same,pEC50,"ME-1; 24 h, read-out: EC50 24 h",5.68
same,pEC50,"ME-1; 48 h, read-out: EC50 48 h",5.92
same,pEC50,"KGIa/ABTR; 24 h, read-out: EC50 24 h",5.54
same,pEC50,"KGIa/ABTR; 48 h, read-out: EC50 48 h",5.57
same,pEC50,"MV4-11; 24 h, read-out: EC50 24 h",5.64
same,pEC50,"MV4-11; 48 h, read-out: EC50 48 h",5.89
same,pEC50,"MOLM-14; 24 h, read-out: EC50 24 h",6.30
same,pEC50,"MOLM-14; 48 h, read-out: EC50 48 h",6.30
same,pEC50,"ML2; 24 h, read-out: EC50 24 h",5.77
same,pEC50,"ML2; 48 h, read-out: EC50 48 h",5.74
same,pEC50,"Kasumi-3; 24 h, read-out: EC50 24 h",6.30
same,pEC50,"Kasumi-3; 48 h, read-out: EC50 48 h",6.15
same,pEC50,"MOLM-13; 24 h, read-out: EC50 24 h",5.96
same,pEC50,"MOLM-13; 48 h, read-out: EC50 48 h",5.85
same,pEC50,"KGI/ABTR; 24 h, read-out: EC50 24 h",5.27
same,pEC50,"KGI/ABTR; 48 h, read-out: EC50 48 h",5.39
same,pEC50,"HEL; 24 h, read-out: EC50 24 h",5.92
same,pEC50,"HEL; 48 h, read-out: EC50 48 h",5.80
same,pEC50,"THP-1; 24 h, read-out: EC50 24 h",5.59
same,pEC50,"THP-1; 48 h, read-out: EC50 48 h",5.66
same,pEC50,"HL60; 24 h, read-out: EC50 24 h",5.74
same,pEC50,"HL60; 48 h, read-out: EC50 48 h",5.92
same,pEC50,"NB4; 24 h, read-out: EC50 24 h",6.70
same,pEC50,"NB4; 48 h, read-out: EC50 48 h",6.22
same,pEC50,"MM-6; 24 h, read-out: EC50 24 h",5.11
same,pEC50,"MM-6; 48 h, read-out: EC50 48 h",5.22

# Source: patent publication US11426371B2, “Compositions and methods for treating cancer” (University of Virginia Patent Foundation, priority 2017, dated 2022)
